Like-named read-outs stand apart in the source and are kept apart here.
Key:
Test in all cases: CRE-luciferase assay of odorant receptor activation (Dual-Glo, Hana3A cells, RTP1S), dose-response EC50
Format in all cases: cell-based
[1] = biological target: T1, human odorant receptors (ORs) (Homo sapiens, UniProt Q8TCB6)
T1 construct: OR open reading frames were amplified from genomic DNA; expressed in transfected cells; host or cells: Hana3A cells, co-transfected with RTP1S, CRE-luciferase and pRL-SV40
T1 sequence (Q8TCB6 1-318): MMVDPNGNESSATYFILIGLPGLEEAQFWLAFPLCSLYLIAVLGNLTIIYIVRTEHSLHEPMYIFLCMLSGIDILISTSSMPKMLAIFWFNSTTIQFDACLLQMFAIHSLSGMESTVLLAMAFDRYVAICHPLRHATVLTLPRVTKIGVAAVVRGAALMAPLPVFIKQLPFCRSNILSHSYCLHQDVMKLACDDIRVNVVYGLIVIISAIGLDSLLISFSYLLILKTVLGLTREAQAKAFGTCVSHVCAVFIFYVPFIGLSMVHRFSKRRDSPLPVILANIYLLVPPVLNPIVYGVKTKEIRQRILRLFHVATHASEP
Method in brief: (§1)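 Hana3A cells were co-transfected with Rho-tagged OR, RTP1S, CRE-luciferase and pRL-SV40, then exposed to odorant in CD293 medium for 4 hrs at 37° C. Firefly luminescence was divided by Renilla and normalized as (LN−Lmin)/(Lmax−Lmin) per plate set. Each dose was tested at least three times, and EC50 came from sigmoidal fits.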

[2] = biological target: T2, human odorant receptors (ORs) (Homo sapiens, UniProt O95371); conditions: receptor OR2C1; read-out: log EC50 of odorant at OR2C1 (0 = no response) (converted)
T2 construct: OR open reading frames were amplified from genomic DNA; expressed in transfected cells; host or cells: Hana3A cells, co-transfected with RTP1S, CRE-luciferase and pRL-SV40
T2 sequence (O95371 1-312): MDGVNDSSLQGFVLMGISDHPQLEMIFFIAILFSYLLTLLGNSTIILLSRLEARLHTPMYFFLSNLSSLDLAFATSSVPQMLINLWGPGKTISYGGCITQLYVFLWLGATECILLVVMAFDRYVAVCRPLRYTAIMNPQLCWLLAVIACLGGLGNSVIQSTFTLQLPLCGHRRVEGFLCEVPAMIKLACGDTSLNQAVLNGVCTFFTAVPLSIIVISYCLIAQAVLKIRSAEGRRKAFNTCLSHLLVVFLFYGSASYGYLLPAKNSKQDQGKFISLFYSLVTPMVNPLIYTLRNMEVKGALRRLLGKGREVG
Method in brief: as §1

[3] = biological target: T3, human odorant receptors (ORs) (Homo sapiens, UniProt Q8NG81); conditions: receptor OR2M7
T3 construct: OR open reading frames were amplified from genomic DNA; expressed in transfected cells; host or cells: Hana3A cells, co-transfected with RTP1S, CRE-luciferase and pRL-SV40
T3 sequence (Q8NG81 1-312): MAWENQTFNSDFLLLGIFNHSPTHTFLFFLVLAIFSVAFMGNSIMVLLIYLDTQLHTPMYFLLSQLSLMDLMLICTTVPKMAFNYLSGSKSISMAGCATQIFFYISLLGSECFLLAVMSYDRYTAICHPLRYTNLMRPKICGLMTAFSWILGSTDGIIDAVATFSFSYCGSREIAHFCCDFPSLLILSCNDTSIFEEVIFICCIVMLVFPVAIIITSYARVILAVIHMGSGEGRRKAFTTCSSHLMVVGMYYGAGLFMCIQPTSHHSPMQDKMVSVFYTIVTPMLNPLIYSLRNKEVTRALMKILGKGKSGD
Method in brief: as §1

[4] = biological target: T4, human odorant receptors (ORs) (Homo sapiens, UniProt Q8NGJ5)
T4 construct: OR open reading frames were amplified from genomic DNA; expressed in transfected cells; host or cells: Hana3A cells, co-transfected with RTP1S, CRE-luciferase and pRL-SV40
T4 sequence (Q8NGJ5 1-315): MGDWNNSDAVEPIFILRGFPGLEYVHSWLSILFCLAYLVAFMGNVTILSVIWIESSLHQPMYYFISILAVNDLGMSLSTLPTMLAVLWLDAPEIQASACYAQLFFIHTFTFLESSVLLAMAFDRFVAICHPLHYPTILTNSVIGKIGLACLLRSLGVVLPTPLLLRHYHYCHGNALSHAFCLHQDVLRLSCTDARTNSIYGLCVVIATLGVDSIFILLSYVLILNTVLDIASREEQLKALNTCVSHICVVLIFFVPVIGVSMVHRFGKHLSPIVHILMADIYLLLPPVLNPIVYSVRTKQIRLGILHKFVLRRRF
Method in brief: as §1

Molecule CCCCCCCCC(=O)O [Nonanoic acid] has an EC50 [1] of 246 µM.

With CCCCCCCCCS [Nonanethiol] the EC50 [2] was 128 µM.

CC(C)=CCC/C(C)=C/CO [Getaniol] gave an EC50 ([3]; read-out: log EC50 (Table 4 value), OR2M7 (converted)) of 627 µM.

Molecule CCCCCCCCS [Octanethiol] has an EC50 [2] of 88.9 µM.

CC(C)=CCCC(C)CCO (single isomer, unassigned; (-)) [(−)-b-C ? inedol] gave an EC50 ([3]; 0 = no response, read-out: log EC50, OR2M7 (converted)) of 140 µM.

In the case of C=CCOC(=O)Cc1ccccc1 [Allyl phenylacetate], the EC50 [4] is reported as 67.6 µM.

— patent publication US20100248390A1, “COMPOSITIONS AND METHODS FOR IDENTIFYING LIGANDS OF ODORANT RECEPTORS” (DUKE UNIVERSITY, priority 2009, published 2010)
